Assays:
[1] = test system: Antikörperbildung gegen Schafserythrozyten (Plaquebildende Milzzellen); assay: Antibody formation against sheep erythrocytes (JERNE plaque test, IgM plaque-forming spleen cells) in X-irradiated, bone-marrow-transplanted mice; type: in vivo, AB/Bln.-Mäuse
Source text: (§1) Zum Nachweis der immunologischen Wirkungen wurden folgende Modelle verwendet: - "Kolonien - Bildung" ("Kolonien" - Bildungstest ) durch menschliche Knochenmarkzellen nach Kultivierung der Zellen mit dem menschlichen Granulocyten - Makrophagen - "Kolonien" - stimulierenden Faktor (hGM-CSF) und Spleninderivaten. - die Antikörperbildung gegen Schafserythrozyten ( Plaquebildende Milzzellen ) durch Ab/Bln.-Mäuse nach Röntgenbestrahlung (Tabelle 2).
Es wurden drei Monate alte AB/Bln.-Mäuse einmalig mit 800 cGy röntgenbestrahlt. Danach wurden die Tiere in drei Gruppen aufgeteilt und folgendermaßen weiterbehandelt: • Gruppe 1: Nach der Bestrahlung wurde den Tieren Knochenmarkzellen von Tieren des gleichen Inzuchtstammes transplantiert (Injektion von je 5 mal 10⁶ Knochenmarkzellen pro Tier). […] In differenten Zeitabständen nach der Bestrahlung und während der DAc-hSP5-Behandlung wurde mittels des JERNE-Plaque-Testes die Fähigkeit der Tiere untersucht, Antikörper zu bilden. • Gruppe 2: Gleiche Behandlung der Tiere wie in Gruppe 1, jedoch keine Therapie der Tiere mit DAc-hSP5. • Gruppe 3: Alleinige Röntgenbestrahlung der Tiere; keine Transplantation syngener Knochenmarkzellen, keine Therapie der Tiere mit DAc-hSP5.
Fünf Tage vor der Bestimmung der IgM Plaque-bildenden Milzzellen (Tage, angegeben in Tabelle 2) wurden die Tiere mit 5 x 10⁸ Schafserythrozyten immunisiert (intaperitoneale Applikation). Methodik: Eckert et.al., Biomed. Biochem. Acta, 1985, (44), 1239.

[2] = test system: menschliche Knochenmarkzellen; assay: Colony formation test: human bone marrow cells cultured with hGM-CSF and splenin derivatives; type: cell-based; conditions: human bone marrow cells with hGM-CSF; Tab.1, Nr.6
Source text: as §1
Stimulierung des Wachstums und der Reifung von Knochenmarkstammzellen (in vitro)
Die Anzahl der gebildeten "Kolonien" ist dabei ein Maß für die mitotische bzw. differenzierende Wirkung der Faktoren auf die Knochenmarkzellen. Da Thymopentin in diesem Testsystem (Tab.1, Nr.6) keine Wirkung zeigte, ist anzunehmen, daß die immunstimulierende Wirkung von Timunox nicht über eine Wirkung auf Stammzellen des Knochenmarks zustande kommt.

Substance: (N^α-Acetyl)-arginyl-(N^ε-acetyl)-lysylalanylvalyltyrosin [DAc-hSP5]
- Effekt auf die Antikörperbildung ([1]; 1 µg per animal i.p. three times weekly): nicht wirksam
- Effekt auf die Antikörperbildung ([1]; 2 µg per animal i.p. three times weekly): nicht wirksam
- Effekt auf die Antikörperbildung ([1]; 4 µg per animal i.p. three times weekly): nicht wirksam
- Effekt auf die Antikörperbildung ([1]; 8 µg per animal i.p. three times weekly): suboptimal
- Effekt auf die Antikörperbildung ([1]; 10 ug per animal i.p. three times weekly): optimalen Effekt
- Effekt auf die Antikörperbildung ([1]; 20 µg per animal i.p. three times weekly): Effekt wie nach der von 10 ug
- Effekt auf die Antikörperbildung ([1]; 50 µg per animal i.p. three times weekly): Effekt wie nach der von 10 ug
- Antikörperbildung (IgM Plaque-bildende Milzzellen) ([1]; 800 cGy, syngeneic bone marrow transplant, 10 µg per animal i.p. three times weekly, Tabelle 2): beschleunigt zu einer normalen Antikörperbildung befähigt

Substance: Thymopentin
- Wirkung im "Kolonien"-Bildungstest (Anzahl der gebildeten "Kolonien") [2]: keine Wirkung
